Experimental data published in patent US20240343754A1, “7-SUBSTITUTED 7-DEAZAADENINE-CONTAINING 2',3'-CYCLIC DINUCLEOTIDES” (USTAV ORGANICKE CHEMIE A BIOCHEMIE AV CR, V. V. I., priority 2021, published 2024).
pEC50: −log10 of the molar value. Where two headings read alike, the source gives them in different places.

Tests used:
[1] = test system: Peripheral blood mononuclear cells (PBMC); assay: PBMC assay: induction of cytokines INFα and INFγ; format: cell-based; details: Homo sapiens, PBMCs, 16 h incubation, mean from three different PBMC donors
[2] = Cytotoxic effect on PBMCs (CellTiter-Glo Luminescent Cell Viability Assay); format: cell-based; details: human, 16 h incubation, mean from three different PBMC donors
Procedure: Briefly, buffy coats were obtained from the Institute of Hematology and Blood Transfusion (Prague, Czech Republic). Informed written consent was signed by each volunteer. Isolation of PBMCs was performed on Ficoll density gradient centrifugation (Ficoll Paque Plus, GE Healthcare, USA) in SepMate tubes (SepMate PBMC Isolation Tubes, Stemcell Technologies, Canada). Obtained PBMCs were washed using PBS with 2 mM EDTA, and then seeded onto 96-well U-shape plates at density 500,000 cells per well in RPMI 1640 media with 10% (v/v) heat inactivated FBS. Serially diluted CDNs were added to cells and cells were incubated for 16 h (37° C., 5% CO2). After incubation, medium was collected to determine levels of INFα and INFγ using ProcartaPlex Assays and MAGPIX System (Merck, Germany) according to the manufacturer's instructions. Cytotoxic effect of CDNs on PBMCs was determined using CellTiter-Glo® Luminescent Cell Viability Assay (Promega Corporation, USA) according to manufacturer's instruction.

wt hSTING = wt hSTING (Homo sapiens, UniProt Q86WV6); assay: Standard 293T reporter cell-based assay (IRF-3 dependent firefly luciferase reporter); details: read-out: Standard assay EC50; 293T reporter cells expressing wt hSTING; 7 h incubation; mean of three independent experiments in triplicates, SD <50%
Procedure: Briefly, the day before testing cells were seeded onto 96-well white plates at density 250,000 cells per cm^2 in DMEM High glucose medium supplemented with 10% (v/v) heat inactivated fetal bovine albumin (FBS). The next day medium was removed, and cell were incubated for 7 h (37° C., 5% CO2) with serial dilution of compounds in medium. After incubation, Bright-Glo Luciferase Assay System reagent was added to cells and luminescence readout was performed on SPARK instrument (Tecan, Austria). EC50 values were determined using in software Prism (GraphPad, USA).

[3] = read-out: PBMC assay EC50 INF α
[4] = read-out: PBMC assay EC50 INF γ

Chain of wt hSTING (Q86WV6 whole entry H232R): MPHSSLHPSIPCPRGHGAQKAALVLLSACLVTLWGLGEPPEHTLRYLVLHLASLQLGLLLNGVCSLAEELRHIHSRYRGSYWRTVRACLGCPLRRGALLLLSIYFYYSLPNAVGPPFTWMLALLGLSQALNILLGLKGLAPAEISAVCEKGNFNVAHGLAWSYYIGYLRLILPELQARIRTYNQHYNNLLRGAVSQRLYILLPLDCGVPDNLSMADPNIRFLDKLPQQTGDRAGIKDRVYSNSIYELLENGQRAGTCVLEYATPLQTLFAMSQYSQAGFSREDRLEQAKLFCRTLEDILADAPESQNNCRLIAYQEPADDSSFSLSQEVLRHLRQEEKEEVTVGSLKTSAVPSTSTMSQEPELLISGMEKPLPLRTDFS

pEC50 (wt hSTING)	SMILES	pEC50 [1, 3]	pEC50 [1, 4]	CC50 at 16 h [2]
5.59	Nc1nc2c(ncn2[C@@H]2O[C@@H]3COP(=O)(O)O[C@H]4[C@@H](O)[C@H](n5cc(-c6ccc(COc7cccc8ccccc78)cc6)c6c(N)ncnc65)O[C@@H]4COP(=O)(O)O[C@@H]2[C@@H]3O)c(=O)[nH]1 [Compound 1h, 2-amino-9-((5R,7R,8R,12aR,14R,15R,15aS,16R)-14-(4-amino-5-(4-((naphthalen-1-yloxy)methyl)phenyl)-7H-pyrrolo[2,3-d]pyrimidin-7-yl)-2,10,15,16-tetrahydroxy-2,10-dioxidooctahydro-12H-5,8-methanofuro[3,2-l][1,3,6,9,11]pentaoxa[2,10]diphosphacyclotetradecin-7-yl)-1,9-dihydro-6H-purin-6-one]	5.71	5.97	> 200 µM
4.96	Nc1nc2c(ncn2[C@@H]2O[C@@H]3COP(=O)(O)O[C@H]4[C@@H](O)[C@H](n5cc(-c6cc7ccccc7o6)c6c(N)ncnc65)O[C@@H]4COP(=O)(O)O[C@@H]2[C@@H]3O)c(=O)[nH]1 [Compound 1k, 2-amino-9-((5R,7R,8R,12aR,14R,15R,15aS,16R)-14-(4-amino-5-(benzo[b]furan-2-yl)-7H-pyrrolo[2,3-d]pyrimidin-7-yl)-2,10,15,16-tetrahydroxy-2,10-dioxidooctahydro-12H-5,8-methanofuro[3,2-l][1,3,6,9,11]pentaoxa[2,10]diphosphacyclotetradecin-7-yl)-1,9-dihydro-6H-purin-6-one]	4.86	5.07	> 200 µM
5.06	Nc1nc2c(ncn2[C@@H]2O[C@@H]3COP(=O)(O)O[C@H]4[C@@H](O)[C@H](n5cc(-c6cc7ccccc7s6)c6c(N)ncnc65)O[C@@H]4COP(=O)(O)O[C@@H]2[C@@H]3O)c(=O)[nH]1 [Compound 1l, 2-amino-9-((5R,7R,8R,12aR,14R,15R,15aS,16R)-14-(4-amino-5-(benzo[b]thiophen-2-yl)-7H-pyrrolo[2,3-d]pyrimidin-7-yl)-2,10,15,16-tetrahydroxy-2,10-dioxidooctahydro-12H-5,8-methanofuro[3,2-l][1,3,6,9,11]pentaoxa[2,10]diphosphacyclotetradecin-7-yl)-1,9-dihydro-6H-purin-6-one]	4.32	4.32	> 200 µM
